Assay [1] relates to RKO, HT-29, DiFi and Caco-2 cells. Briefly: MTT assay with EGF stimulation. The class given is cell-based, human. The conditions noted are these: four CRC cell lines, AZ304 + EGF (20 ng/ml) vs AZ304 alone, 72 h. As for the experimental part:
The proliferation assays in selected colorectal cancer cell lines were measured using a 3-(4,5-dimethyl thiazol-2-yl)-2,5-diphenyl tetrazolium bromide (MTT) assay. First of all, cultured cells were seeded into 96-well plates (2000–5000 cells per well). After incubation for 24 h, the cells were pretreated with DMSO or AZ304 for 1 h. Then the indicated doses of Cetuximab were added. Cells were incubated for a further 48 or 72 h. For EGF stimulating assay, cells were incubated in reduced serum medium overnight and then treated with AZ304 or AZ304 + EGF (20 ng/ml) for 72 h. Twenty microliter of MTT solution (5 mg/ml) was added to each well followed by 4 h incubation at 37 °C. The cell culture medium was removed and the cells were lysed in 200 μl dimethylsulphoxide (DMSO) and the results were measured using a microplate reader (Model 550, Bio-Rad Laboratories, Hercules, CA, USA).
Fig. 5 Anti-proliferative activity of AZ304 cannot be retained by EGF in CRC cell lines with different BRAF mutation status. a Two V600E mutant BRAF cell lines (RKO, HT-29) and two wild type BRAF cell lines (DiFi, Caco-2) were serum starved overnight and then treated with the indicated AZ304 or AZ304 + EGF for 72 h. […]

A further assay deals with p38 (Homo sapiens, UniProt Q16539). The assay can be described thus: 33P-ATP filter binding kinase assay (MBP phosphorylation). The class given is biochemical. The note with it: ATP Km. As for the experimental part:
For RAF kinases, detailed assay information was described in ref.[18] Briefly, the kinase activity of BRAF WT, BRAF V600E, or CRAF was measured using an AlphaScreen assay (Perkin Elmer, MA) monitoring MEK1/2 phosphorylation at Ser217/221. For CDK2 and CDK4 kinases, activity was also measured by AlphaScreen, monitoring phosphorylation of biotin Rb peptide at Ser780. Similarly, MAP3K7, CSF1R and JAK2 kinase activity was measured by phosphorylation of their biotinylated substrates MKK6 kinase dead protein at Ser271/Thr275, or tyrosine phosphorylation of pEY or Tyk2 Tyr1054/1055 peptides, respectively. CSK, IGF1R, EGFR, FGFR1 and SRC kinase activity was measured using a sandwich ELISA detecting phosphorylated poly EAY peptide with a HRP conjugated phosphotyrosine antibody and TMB substrate, while p38 kinase activity was measured by monitoring phosphorylation of MBP protein with radiolabeled ^33P-ATP in a filter binding format. All assays were screened under respective ATP Km conditions and inhibitor IC50s were derived from either 5 (RAF kinases, CDK2, CDK4, MAP3K7, JAK2), 10 (CSK, IGF1R, EGFR, FGFR1, SRC) or 11 (p38, CSF1R) point compound dose response.

The subject of another assay is Melma-3M. Briefly: Cell proliferation assay (cell panel, MTS). The format is cell-based. The note with it: Homo sapiens, 72 h, Melanoma, BRAF V600E, RAS WT, 3 days. The method, then:
(§1) The proliferation assays against a cell panel were performed as described in ref.[18] Briefly, the cells were treated with DMSO or multiple concentrations of AZ304 for 3 days. The cell growth was determined using the CellTiter 96 Aqueous One Cell Proliferation Assay (Promega, Madison, WI). […] The assays were done in triplicate across different plates.
(§2) Anti-proliferative activity of AZ304 against a panel of cell lines with different BRAF and RAS genetic status. […] Cell growth was determined by MTS assay.

The next assay has as its system SK-MEL-31. Briefly: Cell proliferation assay (cell panel, MTS). The class given is cell-based. The note with it: Homo sapiens, 72 h; SK-MEL-31, Melanoma, BRAF WT, RAS WT, 3 days. As for the experimental part:
as §1, §2

For the next assay, the system named is SK-MEL-3. Briefly: Cell proliferation assay (cell panel, MTS). The class given is cell-based. The conditions noted are these: Homo sapiens, SK-MEL3, 72 h; SK-MEL-3, Melanoma, BRAF V600E, RAS WT, 3 days. The method, then:
as §1, §2

In the next assay the test system is MC-F7/mdr+. The assay can be described thus: Cell proliferation assay (cell panel, MTS). The class given is cell-based. The note with it: Homo sapiens, MCF7, 72 h, Breast, BRAF WT, RAS WT, 3 days. The method, then: as §1, §2
The next assay has as its system NCI-H23. The assay can be described thus: Cell proliferation assay (cell panel, MTS). The format is cell-based. The conditions noted are these: Homo sapiens, 72 h; NCI-H23, Lung, BRAF WT, KRAS MT, 3 days. As for the experimental part: as §1, §2
The test system of another assay is SK-MEL-28. The assay can be described thus: Cell proliferation assay (cell panel, MTS). The class given is cell-based. The note with it: Homo sapiens, 72 h; SK-MEL-28, Melanoma, BRAF V600E, RAS WT, 3 days. As for the experimental part:
as §1, §2

Another assay has as its system NCI-H1755. Briefly: Cell proliferation assay (cell panel, MTS). The class given is cell-based. The conditions noted are these: Homo sapiens, 72 h; NCI-H1755, Lung, BRAF A468, RAS WT, 3 days. As for the experimental part: as §1, §2
Another assay deals with MC-F7. Briefly: Cell proliferation assay (cell panel, MTS). The format is cell-based. The conditions noted are these: Homo sapiens, MCF7, 72 h; MC-F7, Breast, BRAF WT, RAS WT, 3 days. The method, then:
as §1, §2

Another assay has as its system JVM-3. Briefly: Cell proliferation assay (cell panel, MTS). The format is cell-based. The note with it: Homo sapiens, 72 h; JVM-3, Lymphoma, BRAF K601N, RAS WT, 3 days. As for the experimental part: as §1, §2
The test system of another assay is HCT116. The assay can be described thus: Cell proliferation assay (cell panel, MTS). The class given is cell-based. The note with it: Homo sapiens, HCT-116, 72 h; HCT116, Colon, BRAF WT, KRAS MT, 3 days. The method, then: as §1, §2
The test system of another assay is SW620. The assay can be described thus: Cell proliferation assay (cell panel, MTS). The note with it: Homo sapiens, SW-620, 72 h; SW620, Colon, BRAF WT, KRAS MT, 3 days. The format is cell-based. As for the experimental part:
as §1, §2

For another assay, the system named is SK-OV3. Briefly: Cell proliferation assay (cell panel, MTS). The conditions noted are these: Homo sapiens, SK-OV-3, 72 h; SK-OV3, Ovary, BRAF WT, RAS WT, 3 days. The class given is cell-based. The method, then:
as §1, §2

For another assay, the system named is MDA-MB-231. The assay can be described thus: Cell proliferation assay (cell panel, MTS). The class given is cell-based. The conditions noted are these: Homo sapiens, 72 h; MDA-MB-231, Breast, BRAF G464V HT, KRAS MT, 3 days. As for the experimental part: as §1, §2
A further assay concerns COLO205. Briefly: Cell proliferation assay (cell panel, MTS). The format is cell-based. The note with it: Homo sapiens, COLO 205, 72 h; COLO205, Colon, BRAF V600E HT, RAS WT, 3 days. The method, then: as §1, §2

Experimental findings from article PMC5988692, “AZ304, a novel dual BRAF inhibitor, exerts anti-tumour effects in colorectal cancer independently of BRAF genetic status” (British Journal of Cancer, 2018) are described below.

What is called IC50 is the concentration needed to halve the response being measured. A high value points to weaker potency in that assay. By GI50 is commonly meant the concentration that inhibits growth by half.

Chain of p38 (Q16539 whole entry): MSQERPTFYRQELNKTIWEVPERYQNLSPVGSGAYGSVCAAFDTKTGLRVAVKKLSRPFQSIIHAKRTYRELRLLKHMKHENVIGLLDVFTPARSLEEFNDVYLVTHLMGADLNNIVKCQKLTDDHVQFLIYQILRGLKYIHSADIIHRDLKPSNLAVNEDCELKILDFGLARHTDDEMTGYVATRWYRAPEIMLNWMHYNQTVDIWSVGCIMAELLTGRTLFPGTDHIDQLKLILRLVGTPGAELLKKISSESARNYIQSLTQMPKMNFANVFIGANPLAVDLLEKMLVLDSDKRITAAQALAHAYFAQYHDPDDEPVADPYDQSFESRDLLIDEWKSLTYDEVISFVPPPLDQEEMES

With `COc1ccc2c(Nc3cc(NC(=O)c4cccc(C(C)(C)C#N)c4)ccc3C)ncnc2c1` [AZ304], in [1], the “change of anti-proliferative effects after combined treatment with EGF” value is on record as “no significant reduction of anti-proliferative effects”. On p38, this compound returned an IC50 of 6 nM. Besides, the GI50 with Melma-3M came out at 100 nM; with SK-MEL-31, 430 nM; in the assay with SK-MEL-3, 530 nM; in the assay on MC-F7/mdr+, 7630 nM; with NCI-H23, 3990 nM; with SK-MEL-28, 500 nM. The GI50 was determined as 7720 nM in the assay on NCI-H1755; 10100 nM in the assay on MC-F7; 1680 nM in the assay on JVM-3; 2740 nM in the assay on HCT116; 2780 nM with SW620; 6180 nM with SK-OV3. Also, the GI50 in the assay on MDA-MB-231 came to 1990 nM; with COLO205, 280 nM.
